Experiments:
kochia [1] = test: Test A preemergence; format: in vivo, Bassia scoparia
Outline: (§1)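 Loam/sand soil; pre-em directed soil spray at planting, post-em spray at 1–2 leaf (2–10 cm). Compound in non-phytotoxic solvent + surfactant. Greenhouse 10 d; visual injury vs untreated, 0 = no effect, 100 = complete control.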

ducksalad = test: Test B flooded paddy test; format: in vivo, Heteranthera limosa; conditions: 250 g ai/ha, Flood, 13 days, 0 to 100 scale (0 no effect, 100 complete control)
Outline: (§2)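 Compound is introduced into paddy water covering soil by 3 cm, treating plants that have reached two leaves. Pots are kept flooded at that depth under greenhouse conditions. Assessment at 13 days gives a 0–100 visual control score.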

kochia [2] = test: Test A postemergence; format: in vivo, Bassia scoparia
Outline: as §1

ragweed [3] = test: Test A postemergence; format: in vivo, Ambrosia artemisiifolia
Outline: as §1

goosegrass [4] = test: Test A preemergence; format: in vivo, Eleusine indica
Outline: as §1

oat, wild [5] = test: Test A preemergence; format: in vivo, Avena fatua
From the text: (§3) Seeds of plant species selected from barnyardgrass (Echinochloa crusgalli), blackgrass (Alopecurus myosuroides), corn (Zea mays), foxtail, giant (giant foxtail, Setaria faberi), goosegrass (Eleusine indica), kochia (Bassia scoparia), oat, wild (wild oat, Avena fatua), pigweed, palmer (palmer amaranth, palmer pigweed, Amaranthus palmeri), Pigweed, Redroot (redroot pigweed, Amaranthus retroflexus), ragweed (common ragweed, Ambrosia artemisiifolia), ryegrass, Italian (italian ryegrass, Lolium multiflorum), soybean (Glycine max), and wheat (Triticum aestivum) were planted into a blend of loam soil and sand and treated preemergence with a directed soil spray using test chemicals formulated in a non-phytotoxic solvent mixture which included a surfactant. At the same time, plants selected from these crops and weed species and also galium (catchweed bedstraw, Galium aparine) and horseweed (Erigeron canadensis) were planted in pots containing the same blend of loam soil and sand and treated with postemergence applications of test chemicals formulated in the same manner. Plants ranged in height from 2 to 10 cm and were in the one- to two-leaf stage for the postemergence treatment. Treated plants and untreated controls were maintained in a greenhouse for 10 days, after which time all treated plants were compared to untreated controls and visually evaluated for injury. Plant response ratings, summarized in Table A, are based on a 0 to 100 scale where 0 is no effect and 100 is complete control. A dash (-) response means no test result.

soybean [6] = test: Test A postemergence; format: in vivo, Glycine max
From the text: as §3

sedge, umbrella = test: Test B flooded paddy test; format: in vivo, Cyperus difformis; conditions: 250 g ai/ha, Flood, 13 days, 0 to 100 scale (0 no effect, 100 complete control)
Outline: as §2

foxtail, giant [7] = test: Test A postemergence; format: in vivo, Setaria faberi
Outline: as §1

corn [8] = test: Test A preemergence; format: in vivo, Zea mays
From the text: as §3

rice = test: Test B flooded paddy test; format: in vivo, Oryza sativa; conditions: 250 g ai/ha, Flood, 13 days, 0 to 100 scale (0 no effect, 100 complete control)
Outline: as §2

blackgrass [9] = test: Test A preemergence; format: in vivo, Alopecurus myosuroides
Outline: as §1

barnyardgrass = test: Test B flooded paddy test; format: in vivo, Echinochloa crus-galli; conditions: 250 g ai/ha, Flood, 13 days, 0 to 100 scale (0 no effect, 100 complete control)
Outline: as §2

ryegrass, Italian [10] = test: Test A preemergence; format: in vivo, Lolium multiflorum
Outline: as §1

goosegrass [11] = test: Test A postemergence; format: in vivo, Eleusine indica
Outline: as §1

pigweed, palmer [12] = test: Test A preemergence; format: in vivo, Amaranthus palmeri
Outline: as §1

ragweed [13] = test: Test A preemergence; format: in vivo, Ambrosia artemisiifolia
Outline: as §1

wheat [14] = test: Test A preemergence; format: in vivo, Triticum aestivum
From the text: as §3

blackgrass [15] = test: Test A postemergence; format: in vivo, Alopecurus myosuroides
Outline: as §1

oat, wild [16] = test: Test A postemergence; format: in vivo, Avena fatua
From the text: as §3

foxtail, giant [17] = test: Test A preemergence; format: in vivo, Setaria faberi
Outline: as §1

pigweed, palmer [18] = test: Test A postemergence; format: in vivo, Amaranthus palmeri
Outline: as §1

wheat [19] = test: Test A postemergence; format: in vivo, Triticum aestivum
From the text: as §3

soybean [20] = test: Test A preemergence; format: in vivo, Glycine max
From the text: as §3

ryegrass, Italian [21] = test: Test A postemergence; format: in vivo, Lolium multiflorum
Outline: as §1

corn [22] = test: Test A postemergence; format: in vivo, Zea mays
From the text: as §3

galium = test: Test A postemergence; format: in vivo, Galium aparine
Outline: as §1

[23] = 125 g ai/ha, visual injury after 10 days, 0 to 100 scale, 0 is no effect, 100 is complete control
[24] = 500 g ai/ha, 0 to 100 scale (0 no effect, 100 complete control), 10 days
[25] = 125 g ai/ha, postemergence, 10 days, visual injury, 0 to 100 scale (0 no effect, 100 complete control)
[26] = 500 g ai/ha, Postemergence, 0 to 100 scale

CC1CN(C(=O)c2cccc(-n3cncn3)c2)c2cc(F)cc(F)c2O1 (centres unmarked) [Compound 45]
Plant response rating, Kochia (kochia [1]; [23]): 0
Plant response rating, Kochia (kochia [1]; [24]): 20
Plant response rating, Ducksalad (ducksalad): 0
Plant response rating, Kochia (kochia [2]; [25]): 10
Plant response rating, Kochia (kochia [2]; [26]): 80
Plant response rating, Ragweed (ragweed [3]; [25]): 0
Plant response rating, Ragweed (ragweed [3]; [26]): 30
Plant response rating, Goosegrass (goosegrass [4]; [23]): 70
Plant response rating, Goosegrass (goosegrass [4]; [24]): 100
Plant response rating, Oat, Wild (oat, wild [5]; [23]): 0
Plant response rating, Oat, Wild (oat, wild [5]; [24]): 80
Plant response rating, Soybean (soybean [6]; [25]): 100
Plant response rating, Soybean (soybean [6]; [26]): 100
Plant response rating, Sedge, Umbrella (sedge, umbrella): 0
Plant response rating, Foxtail, Giant (foxtail, giant [7]; [25]): 20
Plant response rating, Foxtail, Giant (foxtail, giant [7]; [26]): 90
Plant response rating, Corn (corn [8]; [23]): 0
Plant response rating, Corn (corn [8]; [24]): 20
Plant response rating, Rice (rice): 0
Plant response rating, Blackgrass (blackgrass [9]; [23]): 50
Plant response rating, Blackgrass (blackgrass [9]; [24]): 80
Plant response rating, Barnyardgrass (barnyardgrass): 0
Plant response rating, Ryegrass, Italian (ryegrass, Italian [10]; [23]): 70
Plant response rating, Ryegrass, Italian (ryegrass, Italian [10]; [24]): 90
Plant response rating, Goosegrass (goosegrass [11]; [25]): 0
Plant response rating, Goosegrass (goosegrass [11]; [26]): 60
Plant response rating, Pigweed, Palmer (pigweed, palmer [12]; [23]): 30
Plant response rating, Pigweed, Palmer (pigweed, palmer [12]; [24]): 70
Plant response rating, Ragweed (ragweed [13]; [23]): 0
Plant response rating, Ragweed (ragweed [13]; [24]): 0
Plant response rating, Wheat (wheat [14]; [23]): 0
Plant response rating, Wheat (wheat [14]; [24]): 60
Plant response rating, Blackgrass (blackgrass [15]; [25]): 30
Plant response rating, Blackgrass (blackgrass [15]; [26]): 60
Plant response rating, Oat, Wild (oat, wild [16]; [25]): 0
Plant response rating, Oat, Wild (oat, wild [16]; [26]): 20
Plant response rating, Foxtail, Giant (foxtail, giant [17]; [23]): 70
Plant response rating, Foxtail, Giant (foxtail, giant [17]; [24]): 100
Plant response rating, Pigweed, Palmer (pigweed, palmer [18]; [25]): 30
Plant response rating, Pigweed, Palmer (pigweed, palmer [18]; [26]): 10
Plant response rating, Wheat (wheat [19]; [25]): 10
Plant response rating, Wheat (wheat [19]; [26]): 40
Plant response rating, Soybean (soybean [20]; [23]): 20
Plant response rating, Soybean (soybean [20]; [24]): 90
Plant response rating, Ryegrass, Italian (ryegrass, Italian [21]; [25]): 50
Plant response rating, Ryegrass, Italian (ryegrass, Italian [21]; [26]): 80
Plant response rating, Corn (corn [22]; [25]): 10
Plant response rating, Corn (corn [22]; [26]): 20
Plant response rating, Galium (galium; [25]): 80
Plant response rating, Galium (galium; [26]): 90

Reference: patent US20260262643A1, “HERBICIDAL BENZOXAZINES” (FMC CORPORATION, priority 2022, published 2026)
